Entries after “also recorded” stand apart in the source; their conditions may differ. Read-outs that look alike come from different tables or passages of the source.
Columns and labels:
[1] = tested on: patients with advanced solid tumours; assay: Phase 1 safety and tolerability: TEAEs (NCI CTCAE v4.0), DLTs, MTD/RP2D; type: in vivo
Protocol: Part B was a single-arm, 3 + 3 dose-escalation Phase 1 study evaluating the safety, tolerability and PK of berzosertib in combination with cisplatin in patients with advanced solid tumours.
Following screening and baseline evaluations, patients received berzosertib i.v. (90 mg/m^2; days 2 and 9) and cisplatin (40 mg/m^2; day 1), administered in 21-day cycles. Based on safety data from two concurrent studies,[14],[15] a 7- to 14-day lead-in period with single doses of berzosertib (140 mg/m^2) alone was also planned.
For the initial dose escalation, the dose of cisplatin was held constant, while the dose of berzosertib was escalated by a maximum of 50% in each cohort. After the berzosertib dose was escalated, the dose of cisplatin could be increased in order to find the maximum-tolerated dose (MTD) of berzosertib in combination with cisplatin; the MTD was defined as the highest dose of berzosertib tolerated in combination with a cisplatin dose between 60 and 100 mg/m^2, inclusive. […] Patients received berzosertib with cisplatin until progressive disease (PD) or unacceptable toxicity.
Safety evaluations (primary endpoint) included continuous assessment of TEAEs, which were graded using National Cancer Institute Common Terminology Criteria for Adverse Events version 4.0. […] Safety was evaluated throughout treatment and was used to inform dose-escalation decisions. […]

[2] = Plasma and urine pharmacokinetics of berzosertib (LC-MS/MS, non-compartmental analysis); type: in vivo, human; details: for AUC(0-inf) / clearance / Cmax / half-life / Vd: plasma; for AUC(0-inf): read-out: AUC0–∞, mean (%CV); for clearance: read-out: CL, mean (%CV) (converted); for Cmax: read-out: Cmax, mean (%CV); for Vd: read-out: Vss, mean (%CV)
Protocol: In cycle 1, plasma samples for PK analysis were collected both pre- and post-dose on days 2–5 (pre-dose, 0.5 h before the end of infusion, at the end of infusion, and 0.5, 1, 2, 3, 7, 23, 47, and 71 h after end of infusion) and day 9 (pre-dose). Plasma samples were also collected on day 2 of cycle 2 (pre-dose and 2 h after the end of infusion). Cumulative urine was also collected for PK assessments on days 2 and 3 of cycle 1 (pre-dose to 3, 3–7, 7–11, and 11–23 h). Berzosertib concentrations were quantified using a validated liquid chromatography tandem-mass spectrometry method and plasma PK were characterised by non-compartmental analyses using Phoenix WinNolin 6.4 (Certara USA Inc., Princeton, NJ, USA).
The safety set was defined as all patients who received at least one dose of study drug; patients within the safety set were further classified into those who received at least one dose of the study drug in the lead-in period (lead-in safety set) and those who received at least one dose during the combination period (combination safety set). PK data were collected in the PK analysis set, defined as all enrolled patients who received at least one dose of berzosertib and provided at least one measurable post-dose sample. For efficacy analyses, the full analysis set was used, comprising all enrolled patients who had received a baseline scan, at least one dose of study drug, and had at least one post-baseline disease assessment.
Standard non-compartmental methods were used to determine PK parameters. Continuous variables were summarised using descriptive summary statistics. Categorical variables (e.g. incidence of a TEAE) were summarised using frequency counts and percentages. TEAEs observed were summarised by system organ class and preferred term according to the Medical Dictionary for Regulatory Activities v.18.0 or higher.

ATR = tested on: ATR; design: method as in PMID 25010037; details: ATR inhibitor; cited from earlier work
[3] = tested on: patients with advanced solid tumours; details: on second infusion of berzosertib; idiosyncratic, no clear relationship to dose; stated as recognised, no reference given; cited from earlier work
[4] = human, intravenous, cycle 1, day 2, berzosertib and cisplatin, berzosertib 90 mg/m^2, n = 2
[5] = human, intravenous, cycle 1, day 2, berzosertib and cisplatin, berzosertib 140 mg/m^2, n = 8
[6] = human, intravenous, cycle 1, day 2, berzosertib and cisplatin, berzosertib 210 mg/m^2, n = 17
[7] = human, iv, 140 mg/m2, lead-in period, berzosertib alone, 140 mg/m^2 i.v., n = 4

In the case of CNCc1ccc(-c2cc(-c3nc(-c4ccc(S(=O)(=O)C(C)C)cc4)cnc3N)on2)cc1 [berzosertib], the “DLTs during the monotherapy lead-in period” value ([1]; berzosertib 140 mg/m^2 alone, n = 4) is reported as “no DLTs”, the “trends in laboratory results, vital signs or ECG parameters attributable to berzosertib” value ([1]; serum chemistry, haematology, urinalysis) is reported as “no clinically meaningful trends” and the “dose proportionality of plasma exposure” value ([2]; 90–210 mg/m^2, based on mean plasma concentrations and Cmax) is reported as “approximately dose proportional”. The “effect of cisplatin on berzosertib pharmacokinetics” value ([2]; cisplatin given 24 h before berzosertib) was “no apparent effect; also recorded: does not affect the PK profile”, the “mean percentage of berzosertib excreted in the urine” value ([2]; cumulative urine, days 2 and 3 of cycle 1) was 6% and the CL renal ([2]; human, intravenous, cumulative urine, days 2 and 3 of cycle 1, read-out: mean renal clearance (converted)) was 78.3 mL/min. The AUC(0-inf) [2, 4] was 2820 ng·h/mL, the clearance [2, 4] was 1020 mL/min and the Cmax [2, 4] was 458 ng/mL. The half-life ([2]; human, intravenous, cycle 1, day 2, berzosertib and cisplatin, berzosertib 90 mg/m^2, n = 2, read-out: T1/2, mean (%CV) (converted)) was 17 h, the Vd [2, 4] was 1260 L and the AUC(0-inf) [2, 5] was 4870 ng·h/mL. The clearance [2, 5] was 912 mL/min, the Cmax [2, 5] was 854 ng/mL and the Vd [2, 5] was 1060 L. It also gave an AUC(0-inf) [2, 6] of 6740 ng·h/mL, a clearance [2, 6] of 1040 mL/min and a Cmax [2, 6] of 1230 ng/mL. The Vd [2, 6] was 1270 L, the AUC(0-inf) [2, 7] was 5670 ng·h/mL and the clearance [2, 7] was 898 mL/min. It also gave a Cmax [2, 7] of 652 ng/mL, a half-life ([2]; human, intravenous, 140 mg/m^2, berzosertib monotherapy, four patients, read-out: mean terminal elimination half-life (converted)) of about 17 h and a half-life ([2]; human, intravenous, 140 mg/m^2, plasma, cycle 1, day 2, berzosertib and cisplatin, berzosertib 140 mg/m^2, n = 8, read-out: T1/2, mean (%CV) (converted)) of 17.5 h. The half-life ([2]; human, intravenous, 210 mg/m^2, plasma, cycle 1, day 2, berzosertib and cisplatin, berzosertib 210 mg/m^2, n = 17, read-out: T1/2, mean (%CV) (converted)) was 17.3 h, the half-life ([2]; human, iv, 140 mg/m2, plasma, lead-in period, berzosertib alone, 140 mg/m^2 i.v., n = 4, read-out: T1/2, mean (%CV) (converted)) was 20.3 h and the IC50 (ATR) was 0.019 µM. The “patients with acute hypersensitivity” value [3] was under 5%.

Source: article PMC8367944, “Phase 1 study of the ATR inhibitor berzosertib in combination with cisplatin in patients with advanced solid tumours” (British Journal of Cancer, 2021)
